This is an account of results in patent publication US11352350B2, “IRAK degraders and uses thereof” (Kymera Therapeutics, Inc., priority 2018, dated 2022).

Sequence of IRAK4 (Q9NWZ3 whole entry): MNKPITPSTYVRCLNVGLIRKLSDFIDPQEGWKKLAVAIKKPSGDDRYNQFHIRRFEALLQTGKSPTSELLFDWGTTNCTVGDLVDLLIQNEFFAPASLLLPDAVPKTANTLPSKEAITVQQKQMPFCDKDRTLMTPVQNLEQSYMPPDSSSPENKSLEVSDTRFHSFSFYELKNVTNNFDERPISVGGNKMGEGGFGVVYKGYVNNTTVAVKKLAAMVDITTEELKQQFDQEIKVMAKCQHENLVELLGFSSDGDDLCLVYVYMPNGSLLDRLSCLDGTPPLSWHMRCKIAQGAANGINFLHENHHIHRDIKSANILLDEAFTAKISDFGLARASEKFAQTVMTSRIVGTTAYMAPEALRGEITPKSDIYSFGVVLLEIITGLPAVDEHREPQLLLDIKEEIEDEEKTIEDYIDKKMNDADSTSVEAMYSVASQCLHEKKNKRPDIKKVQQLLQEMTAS

One assay deals with IRAK4 (Homo sapiens (Human), UniProt Q9NWZ3). Briefly: IRAK4 MSD degradation in OCI-LY10. The class given is cell-based. The following applies: OCI-LY10, 4 hrs, MSD; read-out: IRAK4 MSD degradation in OCI-LY10 at 4 hrs: Average external-Abs DC50. As for the experimental part:
Degradation of IRAK4 in OCI-LY10 was quantitatively measured using Meso Scale Discovery technology. […] Compounds were then added to the assay plates with a final top concentration of 1 to 10 μM in a 1:3 dilution series with total of 8 doses. The assay plates were then incubated for 4 to 24 hours at 37° C. under 5% CO2. […] To prepare MSD assay plates (Meso Scale Discovery Catalog number L15XA-3), the plates were coated with […] capture antibody (mouse Anti-IRAK4 antibody [2H9], ab119942) in PBS, at 40 μL/well. […] Cell lysates were then added to MSD assay plates and the plates were incubated at room temperature for 1 hour. The plates were then washed 3 times with 150 μL/well TBST buffer and 25 μL/well primary detection antibody (rabbit Anti-IRAK4 antibody [Y279], from Abcam. Catalog number ab32511, […]). The assay plates were then incubated at room temperature for 1 hour, washed 3 times with 150 μL/well TBST buffer and 25 µL/well secondary detection antibody, SULFO-TAG anti-rabbit antibody were added (anti rabbit antibody from Meso Scale Discovery, Catalog number R32AB-1, 1 μg/mL). The assay plates were then incubated at room temperature for 1 hour, washed 3 times with 150 μL/well TB ST buffer, and 150 μL/well MSD reading buffer (Meso Scale Discovery catalog number R92TC-2) was added. The plates were then analyzed by a MSD reader (Meso Scale Discovery, Model Quick Plex SQ 120). The data was then analyzed by software Prism 7.0 from GraphPad and the dose-depended IRAK4 degradation were fit using a three-parameter logistic equation to calculate DC50.
In the case of `O=C1CCC(N2C(=O)c3cccc(NCCCOC4CCN(C[C@H]5CC[C@H](n6cc(NC(=O)c7cnn8ccc(N9CC%10CC(C9)O%10)nc78)c(C(F)F)n6)CC5)CC4)c3C2=O)C(=O)N1` (stereo partly shown) [I-344], the DC50 fell in the range of 100 to 1000 nM. Consider `CC([C@H]1CC[C@H](n2cc(NC(=O)c3coc(-c4ccnc(NCC5CC5)c4)n3)c(C(F)F)n2)CC1)N1CCC(OCCCc2cccc3c2n(C)c(=O)n3C2CCC(=O)NC2=O)CC1` (stereo partly shown) [I-301, 2-[2-(Cyclopropylmethylamino)-4-pyridyl]-N-[3-(difluoromethyl)-1-[4-[1-[4-[3-[1-(2,6-dioxo-3-piperidyl)-3-methyl-2-oxo-benzimidazol-4-yl]propoxy]-1-piperidyl]ethyl]cyclohexyl]pyrazol-4-yl] oxazole-4-carboxamide], for which the DC50 was 10 to 100 nM. Still for that read-out and setting: in the case of `Cn1c(=N)n(C2CCC(=O)NC2=O)c2ccc(CCCOCCCN3CCC(n4cc(NC(=O)c5cnn6ccc(N7CCOCC7)nc56)c(C(F)F)n4)CC3)cc21` (stereo not shown) [I-179] it was 100 to 1000 nM; in that of `CN(C[C@H]1CC[C@H](n2cc(NC(=O)c3coc(-c4ccnc(NCC5CC5)c4)n3)c(C(F)F)n2)CC1)C1CCN(Cc2cccc3c2n(C)c(=O)n3C2CCC(=O)NC2=O)CC1` (stereo partly shown) [I-400], < 10 nM; in that of `C[C@@H]1CN(c2ccn3ncc(C(=O)Nc4cn([C@H]5CC[C@H](CN6CCC(OCCCc7cccc8c7n(C)c(=O)n8C7CCC(=O)NC7=O)CC6)CC5)nc4C(F)F)c3n2)C[C@H](C)O1` (stereo partly drawn) [I-275, N-[3-(difluoromethyl)-1-[4-[[4-[3-[1-(2,6-dioxo-3-piperidyl)-3-methyl-2-oxo-benzimidazol-4-yl]propoxy]-1-piperidyl]methyl]cyclohexyl]pyrazol-4-yl]-5-[(2R,6S)-2,6-dimethylmorpholin-4-yl] pyrazolo[1,5-a] pyrimidine-3-carboxamide], 10 to 100 nM.

A further assay relates to OCI-LY10. Put plainly: CTG Cell Viability Assay - OCI-LY10. The class given is cell-based, human. Particulars: Homo sapiens, 96 h; OCI-LY10, 4 days; read-out: CTG Cell Viability Assay - OCI-LY10: Average external-IC50. As for the experimental part: Compound-mediated viability effect on OCI-LY10 or TMD8 was quantitatively determined using the CellTiter-Glo® Luminescent Cell Viability Assay kit from Promega (Catalog number G7570) following manufacturer's recommended procedures. […] Compounds were then added to the assay plate with final top concentration of 10 μM and 1:3 dilution series with total of 9 doses. The final DMSO concentration was normalized to 0.2%. The assay plates were incubated at 37° C. for 4 days under 5% CO2. Then the assay plate was equilibrated at room temperature for 10 minutes. […] The data was then analyzed by software Prism 7.0 from GraphPad and the dose response curves were fit using a three-parameter logistic equation to calculate IC50.
On to `CN1C(=O)CCC(n2c(=O)n(C)c3c(C#CCOC4CCN(C[C@H]5CC[C@H](n6cc(NC(=O)c7cnn8ccc(N9C[C@H]%10C[C@@H]9CO%10)nc78)c(C(F)F)n6)CC5)CC4)cccc32)C1=O` (stereo partly drawn) [I-563, N-[3-(difluoromethyl)-1-[4-[[4-[3-[3-methyl-1-(1-methyl-2,6-dioxo-3-piperidyl)-2-oxo-benzimidazol-4-yl]prop-2-ynoxy]-1-piperidyl]methyl]cyclohexyl]pyrazol-4-yl]-5-[(1R,4R)-2-oxa-5-azabicyclo [2.2.1]heptan-5-yl] pyrazolo[1,5-a] pyrimidine-3-carboxamide], for which the IC50 was > 1000 nM.

Staying with this assay, now noted: Homo sapiens, OCI-Ly10, 96 h, OCI-LY10, 4 days; read-out: CTG Cell Viability Assay - OCI-LY10: Average external-IC50.
`O=C1CCC(N2C(=O)c3cccc(NCCCOC4CCN(C[C@H]5CC[C@H](n6cc(NC(=O)c7cnn8ccc(N9CC%10CC(C9)O%10)nc78)c(C(F)F)n6)CC5)CC4)c3C2=O)C(=O)N1` (stereo partly shown) [I-344]: the concentration for half-maximal inhibition (IC50) is < 50 nM.

For the molecule `CC([C@H]1CC[C@H](n2cc(NC(=O)c3coc(-c4ccnc(NCC5CC5)c4)n3)c(C(F)F)n2)CC1)N1CCC(OCCCc2cccc3c2n(C)c(=O)n3C2CCC(=O)NC2=O)CC1` (stereo partly shown) [I-301, 2-[2-(Cyclopropylmethylamino)-4-pyridyl]-N-[3-(difluoromethyl)-1-[4-[1-[4-[3-[1-(2,6-dioxo-3-piperidyl)-3-methyl-2-oxo-benzimidazol-4-yl]propoxy]-1-piperidyl]ethyl]cyclohexyl]pyrazol-4-yl] oxazole-4-carboxamide], the IC50 is < 50 nM. Still for that read-out and setting: with `Cn1c(=O)n(C2CCC(=O)NC2=O)c2cccc(-c3ccc4c(cnn4CCOC[C@H]4CC[C@H](n5cc(NC(=O)c6cnn7ccc(N8CCOCC8)nc67)c(C(F)F)n5)CC4)c3)c21` (stereo partly shown) [I-405] the figure was > 1000 nM; with `Cn1c(=N)n(C2CCC(=O)NC2=O)c2ccc(CCCOCCCN3CCC(n4cc(NC(=O)c5cnn6ccc(N7CCOCC7)nc56)c(C(F)F)n4)CC3)cc21` (stereo not shown) [I-179], > 1000 nM.

Take `CN(C[C@H]1CC[C@H](n2cc(NC(=O)c3coc(-c4ccnc(NCC5CC5)c4)n3)c(C(F)F)n2)CC1)C1CCN(Cc2cccc3c2n(C)c(=O)n3C2CCC(=O)NC2=O)CC1` (stereo partly shown) [I-400]: the IC50 was < 50 nM. Still for that read-out and setting: in the case of `C[C@@H]1CN(c2ccn3ncc(C(=O)Nc4cn([C@H]5CC[C@H](CN6CCC(OCCCc7cccc8c7n(C)c(=O)n8C7CCC(=O)NC7=O)CC6)CC5)nc4C(F)F)c3n2)C[C@H](C)O1` (stereo partly drawn) [I-275, N-[3-(difluoromethyl)-1-[4-[[4-[3-[1-(2,6-dioxo-3-piperidyl)-3-methyl-2-oxo-benzimidazol-4-yl]propoxy]-1-piperidyl]methyl]cyclohexyl]pyrazol-4-yl]-5-[(2R,6S)-2,6-dimethylmorpholin-4-yl] pyrazolo[1,5-a] pyrimidine-3-carboxamide] it was > 1000 nM. On the same count and under the same terms, in the case of `CN(CCCOCC#Cc1ccc2c(c1)n(C)c(=O)n2C1CCC(=O)NC1=O)C[C@H]1CC[C@H](n2cc(NC(=O)c3coc(-c4ccnc(NCC5CC5)c4)n3)c(C(F)F)n2)CC1` (stereo partly shown) [I-126] it was > 1000 nM; in that of `Cn1c(=O)n(C2CCC(=O)NC2=O)c2ccc(CCCOC3CN(C[C@H]4CC[C@H](n5cc(NC(=O)c6coc(-c7ccnc(NCC8CC8)c7)n6)c(C(F)F)n5)CC4)C3)cc21` (stereo partly shown) [I-121], > 1000 nM; in that of `CN(CC[C@H]1CN(CCCc2cccc3c2n(C)c(=O)n3C2CCC(=O)NC2=O)CCO1)C[C@H]1CC[C@H](n2cc(NC(=O)c3coc(-c4ccnc(NCC5CC5)c4)n3)c(C(F)F)n2)CC1` (stereo partly shown) [I-117], > 1000 nM.

Consider `CN(CCOCCCc1cccc2c1n(C)c(=O)n2C1CCC(=O)NC1=O)C[C@H]1CC[C@H](n2cc(NC(=O)c3coc(-c4ccnc(NCC5CC5)c4)n3)c(C(F)F)n2)CC1` (stereo partly shown) [I-124], for which the IC50 is > 1000 nM.

Consider `CN(C[C@@H]1CN(CCNCc2ccc3c(c2)n(C)c(=O)n3C2CCC(=O)NC2=O)CCO1)C[C@H]1CC[C@H](n2cc(NC(=O)c3coc(-c4ccnc(NCC5CC5)c4)n3)c(C(F)F)n2)CC1` (stereo partly shown) [I-109], for which the concentration for half-maximal inhibition (IC50) is > 1000 nM.

Take `Cn1c(=O)n(C2CCC(=O)NC2=O)c2ccc(C#CC3CCN(C[C@H]4CC[C@H](n5cc(NC(=O)c6coc(-c7ccnc(NCC8CC8)c7)n6)c(C(F)F)n5)CC4)CC3)cc21` (stereo partly shown) [I-111]: the IC50 is > 1000 nM.

Turning to `CN(CC[C@@H]1CN(CCCc2cccc3c2n(C)c(=O)n3C2CCC(=O)NC2=O)CCO1)C[C@H]1CC[C@H](n2cc(NC(=O)c3coc(-c4ccnc(NCC5CC5)c4)n3)c(C(F)F)n2)CC1` (stereo partly shown) [I-116], the IC50 was > 1000 nM. Turning to `Cn1c(=O)n(C2CCC(=O)NC2=O)c2cccc(-c3ccc4nn(CCOC[C@H]5CC[C@H](n6cc(NC(=O)c7cnn8ccc(N9CCOCC9)nc78)c(C(F)F)n6)CC5)cc4c3)c21` (stereo partly shown) [I-406], the concentration for half-maximal inhibition (IC50) was > 1000 nM. Turning to `Cn1c(=O)n(C2CCC(=O)NC2=O)c2cccc(CCCOC3CN(C[C@H]4CC[C@H](n5cc(NC(=O)c6coc(-c7ccnc(NCC8CC8)c7)n6)c(C(F)F)n5)CC4)C3)c21` (stereo partly shown) [I-122], the IC50 is > 1000 nM. On to `Cn1c(=O)n(C2CCC(=O)NC2=O)c2cccc(CCCOCC(F)CNC(=O)c3cnc(-n4ncc5cc(C#N)cnc54)cc3NC3CC3)c21` (stereo not shown) [I-137], for which the IC50 was > 1000 nM. Still for that read-out and setting: in the case of `O=C1CCC(n2c3ccccc3c3c(CCCOC4CCN(CC5CCC(n6cc(NC(=O)c7coc(-c8ccnc(NCC9CC9)c8)n7)c(C(F)F)n6)CC5)CC4)ccnc32)C(=O)N1` (stereo not shown) [I-123] it was 500 to 1000 nM; in that of `Cn1c(=O)n(C2CCC(=O)NC2=O)c2cccc(CCCOC3CCN(C[C@H]4CC[C@H](n5cc(NC(=O)c6cnn7ccc(N8CCNCC8)nc67)c(C(F)F)n5)CC4)CC3)c21` (stereo partly shown) [I-125], > 1000 nM; in that of `Cn1c(=O)n(C2CCC(=O)NC2=O)c2ccc(CCCOCC3CCN(C[C@H]4CC[C@H](n5cc(NC(=O)c6coc(-c7ccnc(NCC8CC8)c7)n6)c(C(F)F)n5)CC4)CC3)cc21` (stereo partly shown) [I-119], > 1000 nM. Still for that read-out and setting: with `CN(C[C@@H]1CN(CCNCc2ccc3c(c2)n(C)c(=O)n3C2CCC(=O)NC2=O)CCO1)C(=O)[C@H]1CC[C@H](n2cc(NC(=O)c3coc(-c4ccnc(NCC5CC5)c4)n3)c(C(F)F)n2)CC1` (stereo partly shown) [I-106] the figure was > 1000 nM. Same read-out and setting: with `CN(CC1CCC(n2cc(NC(=O)c3coc(-c4ccnc(NCC5CC5)c4)n3)c(C(F)F)n2)CC1)C[C@H]1CN(CCCc2cccc3c2n(C)c(=O)n3C2CCC(=O)NC2=O)CCO1` (stereo partly shown) [I-113] the figure was > 1000 nM; with `Cn1c(=O)n(C2CCC(=O)NC2=O)c2ccc(CN3CCN([C@@H]4CCN(C[C@H]5CC[C@H](n6cc(NC(=O)c7coc(-c8ccnc(NCC9CC9)c8)n7)c(C(F)F)n6)CC5)C4)CC3)cc21` (stereo partly shown) [I-110], > 1000 nM. For the molecule `CN(CCOCCCc1ccc2c(c1)n(C)c(=O)n2C1CCC(=O)NC1=O)C[C@H]1CC[C@H](n2cc(NC(=O)c3coc(-c4ccnc(NCC5CC5)c4)n3)c(C(F)F)n2)CC1` (stereo partly shown) [I-128], the IC50 is > 1000 nM.

The same assay, now with this note: OCI-LY10, 4 days; read-out: CTG Cell Viability Assay - OCI-LY10: Average external-IC50.
`CC1C(=O)N(C2CCC(=O)NC2=O)c2cccc(C3CCN(CCCN(C)C[C@H]4CC[C@H](n5cc(NC(=O)c6coc(-c7ccnc(NCC8CC8)c7)n6)c(C(F)F)n5)CC4)CC3)c21` (stereo partly shown) [I-114]: the IC50 lay within 100 to 500 nM. Take `CN1C(=O)C(C2CCC(=O)NC2=O)c2cccc(CCCOC3CCN(CC4CCC(n5cc(NC(=O)c6cnn7ccc(NC8CCCCC8O)nc67)c(C(F)F)n5)CC4)CC3)c21` (stereo not shown) [I-290]: the IC50 is > 1000 nM.

The term DC50 denotes the midpoint of the concentration-degradation curve. A word on the IC50: it is the point on the concentration scale where inhibition reaches its midpoint.
